pKi: −log10 of the molar value. Counter-ions that a name gives are not always drawn. Like-named read-outs stand apart in the source and are kept apart here.

In experiment [1] the target is T1, 5-HT-1A serotonin receptor (Rattus norvegicus, UniProt P19327).
T1 construct: Hippocampal tissue is dissected and homogenized on ice in 40 vols of buffer; from tissue; host or cells: rat hippocampus, washed membrane homogenate
T1 sequence (P19327 1-422): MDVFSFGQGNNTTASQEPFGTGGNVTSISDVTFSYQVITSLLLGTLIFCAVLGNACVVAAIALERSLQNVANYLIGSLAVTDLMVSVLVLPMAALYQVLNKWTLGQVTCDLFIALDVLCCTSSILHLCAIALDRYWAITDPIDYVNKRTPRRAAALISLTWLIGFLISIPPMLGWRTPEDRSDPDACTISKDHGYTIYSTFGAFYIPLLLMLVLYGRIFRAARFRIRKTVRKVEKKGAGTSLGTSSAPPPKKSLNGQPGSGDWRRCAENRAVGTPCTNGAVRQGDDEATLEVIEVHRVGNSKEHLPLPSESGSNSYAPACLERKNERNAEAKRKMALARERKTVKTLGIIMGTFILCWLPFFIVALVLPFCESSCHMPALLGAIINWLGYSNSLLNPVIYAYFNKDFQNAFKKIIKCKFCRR
Description: ex vivo inhibition of 5-HT-1A serotonin receptor binding (3H-8-OH-DPAT, hippocampal membranes). The procedure: The assay is carried out as follows:
Several groups of rats (4-6 rats/group) are injected with test compound or the appropriate vehicle. Thirty minutes later, unless otherwise noted, rats are decapitated and their brains removed. Various brain regions are dissected and rapidly frozen and maintained at -70° C. until used.
The homogenate is then centrifuged at 20,000 rpm (RC5-B; 50,000 g) and the supernatant discarded. […] The pellet is then resuspended in 100 vols of buffer B (50 mM Tris HCl, pH=7.7 containing 0.1% ascorbate, 10 μM pargyline and 4 mM CaCl2) and sonicated. An aliquot is taken for protein determination by the Lowry method and the remainder stored frozen at -70° C. until used.
Specific binding obtained in vehicle-treated rats is compared to that obtained in animals receiving a single or various doses of test compound and expressed as percent of control.

The subject of experiment [2] is conditioned avoidance responding in rats. Description: conditioned avoidance (shelf-jump response) test. The note with it: i.p.; Table 1.
Description: A test designed to determine the potential antipsychotic activity of the compounds of the invention is the conditioned avoidance (shelf-jump response) test.
This test is carried out as follows:
Male CD rats (Charles River) maintained at approximately 400-450 gm body weight are used. […] A moveable wall, controlled by a motor, determines whether the rat has access to the shelf at any time during the experiment. The experimental chamber also contains a house light and sonalert. A steel grid floor in the main chamber is wired for presentation of electric shock. Each trial consists of a fifteen-second warning tone (conditioned stimulus), continuing for an additional fifteen seconds accompanied by electric shock (unconditioned stimulus). A response (jumping onto the exposed shelf of the upper chamber) occurring during the initial fifteen-second warning tone is considered an avoidance response, while a response occurring during shock delivery is considered an escape response. Trials are presented on a fixed interval schedule of one minute. The session consists of thirty-six trials. Animals are run twice weekly with control sessions always preceding a drug run, and with at least one day intervening. Compounds are administered i.p. or p.o. at appropriate pre-treatment times to a minimum of five rats at each dose level over a range of doses.
The following experimental parameters are recorded by computer: (1) the number of avoidance responses, (2) the number of escape responses, and (3) the number of trials in which no response occurred.
Response counts are summed over all subjects at a given dose. […] This number is expressed as a percentage of the total trials. Control performance is arbitrarily assigned a value of 100% for avoidance and the dose calculated to produce a 50% block in avoidance responding (AB50) is obtained from a dose-effect regression line fitted by the method of least squares. Potential anti-psychotic compounds suppress avoidance responding and increase escape responding.
Experiment [3] concerns the target limbic D-2 dopamine receptor (Rattus norvegicus, UniProt P61169). Kind of experiment: biochemical. The note with it: read-out: Limbic D-2 Binding, inhibition.
Where [4] appears, read: Table 3, rat hippocampal tissue, 3H-8-OH-DPAT, read-out: Inhibition Constant (Ki).

Sequence of limbic D-2 dopamine receptor (P61169 whole entry): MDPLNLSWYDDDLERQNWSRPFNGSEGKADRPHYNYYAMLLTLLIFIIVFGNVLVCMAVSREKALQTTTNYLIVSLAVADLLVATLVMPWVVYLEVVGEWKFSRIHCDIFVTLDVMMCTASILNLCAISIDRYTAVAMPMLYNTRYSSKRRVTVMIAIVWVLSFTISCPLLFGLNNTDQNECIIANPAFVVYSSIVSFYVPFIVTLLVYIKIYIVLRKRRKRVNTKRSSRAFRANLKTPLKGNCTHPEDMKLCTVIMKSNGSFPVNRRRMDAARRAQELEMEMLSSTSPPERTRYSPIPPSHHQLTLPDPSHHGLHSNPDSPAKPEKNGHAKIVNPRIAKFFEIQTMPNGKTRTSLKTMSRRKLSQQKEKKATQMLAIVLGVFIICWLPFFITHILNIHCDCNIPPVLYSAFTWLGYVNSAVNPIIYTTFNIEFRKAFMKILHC

One may read the pKi as the Ki on a negative log10 scale, so that one unit is a factor of ten. Usually inhibition stands for the percentage by which the read-out fell short of the control. Take `O=C1N(CCCCN2CCN(c3ncccn3)CC2)C(=O)C23C4C=CC(C4)C12C1C=CC3C1` (centres unmarked) [Example 1, 1,4,5,8-Tetrahydro-10-[4-[4-(2-pyrimidinyl-1-piperazinyl]butyl]-4a,8a-(methaniminomethano)-1,4:5,8-dimethanonaphthalene-9,11-dione, dihydrochloride, hemihydrate]: in experiment [1] (setting [4]), the negative-log Ki (pKi) was 7.85. In addition, the Active at in experiment [2] is reported as 40 mg/kg. In addition, in experiment [3], the inhibition at 1 µM came out at 53%.
In experiment [1], `O=C1N(CCCCN2CCN(c3cnccn3)CC2)C(=O)C23C4C=CC(C4)C12C1C=CC3C1` (centres unmarked) [Example 3, 1,4,5,8-Tetrahydro-10-[4-[4-(2-pyrazinyl)-1-piperazinyl]butyl]-4a,8a-(methaniminomethano)-1,4:5,8-dimethanonaphthalene-9,11-dione, dihydrochloride, sesquihydrate] had a pKi of 7.92. Further, the Active at in experiment [2] stood at 40 mg/kg. Moreover, the inhibition at 1 µM in experiment [3] worked out at 63%.
Consider `O=C1N(CCCCN2CCN(c3ncccn3)CC2)C(=O)C23C4CCC(C4)C12C1CCC3C1` (centres unmarked) [Example 4, Octahydro-10-[4-[4-(2-pyrimdinyl)-1-piperazinyl]butyl]-4a,8a-(methaniminomethano)-1,4:5,8-dimethanonaphthalene-9,11-dione, dihydrochloride], for which the pKi in experiment [1] (setting [4]) was 8.15. Further, the Active at in experiment [2] is given as 40 mg/kg.

(Values after patent publication US4804751A, “Polycyclic hydrocarbon succinimides with psychotropic activity” (American Home Products Corporation, priority 1987, dated 1989).)
